Values quoted from earlier work, collected in PMC3979036, “Autocrine IGF-I/insulin receptor axis compensates for inhibition of AKT in ER-positive breast cancer cells with resistance to estrogen deprivation” (Breast Cancer Research : BCR, 2013).

Target: InsR (insulin receptor) (Homo sapiens, UniProt P06213)
Assay: autophosphorylation of human InsR in transfected CHO-T cells (AstraZeneca unpublished data)
Format: cell-based

Chain of InsR (insulin receptor) (P06213 28-758): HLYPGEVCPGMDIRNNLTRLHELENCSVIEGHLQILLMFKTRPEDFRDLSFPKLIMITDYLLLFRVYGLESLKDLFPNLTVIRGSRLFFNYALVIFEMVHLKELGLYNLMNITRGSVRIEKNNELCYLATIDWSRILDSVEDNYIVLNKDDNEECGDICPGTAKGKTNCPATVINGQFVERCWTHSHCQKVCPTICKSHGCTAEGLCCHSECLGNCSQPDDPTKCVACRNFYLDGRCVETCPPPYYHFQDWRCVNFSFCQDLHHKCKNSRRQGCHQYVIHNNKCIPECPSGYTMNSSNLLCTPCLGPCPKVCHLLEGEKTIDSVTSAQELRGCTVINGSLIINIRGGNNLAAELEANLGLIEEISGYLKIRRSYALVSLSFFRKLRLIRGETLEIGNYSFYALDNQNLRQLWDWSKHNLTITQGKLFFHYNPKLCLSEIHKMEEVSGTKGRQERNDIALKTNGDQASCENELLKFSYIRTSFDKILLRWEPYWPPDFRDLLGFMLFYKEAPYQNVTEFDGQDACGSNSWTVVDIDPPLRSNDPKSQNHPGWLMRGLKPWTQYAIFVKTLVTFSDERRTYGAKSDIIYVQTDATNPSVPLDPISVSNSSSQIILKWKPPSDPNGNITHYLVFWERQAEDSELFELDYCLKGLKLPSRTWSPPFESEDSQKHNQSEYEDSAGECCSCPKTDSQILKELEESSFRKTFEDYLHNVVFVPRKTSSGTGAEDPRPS
Chain of InsR (insulin receptor) (P06213 763-1382): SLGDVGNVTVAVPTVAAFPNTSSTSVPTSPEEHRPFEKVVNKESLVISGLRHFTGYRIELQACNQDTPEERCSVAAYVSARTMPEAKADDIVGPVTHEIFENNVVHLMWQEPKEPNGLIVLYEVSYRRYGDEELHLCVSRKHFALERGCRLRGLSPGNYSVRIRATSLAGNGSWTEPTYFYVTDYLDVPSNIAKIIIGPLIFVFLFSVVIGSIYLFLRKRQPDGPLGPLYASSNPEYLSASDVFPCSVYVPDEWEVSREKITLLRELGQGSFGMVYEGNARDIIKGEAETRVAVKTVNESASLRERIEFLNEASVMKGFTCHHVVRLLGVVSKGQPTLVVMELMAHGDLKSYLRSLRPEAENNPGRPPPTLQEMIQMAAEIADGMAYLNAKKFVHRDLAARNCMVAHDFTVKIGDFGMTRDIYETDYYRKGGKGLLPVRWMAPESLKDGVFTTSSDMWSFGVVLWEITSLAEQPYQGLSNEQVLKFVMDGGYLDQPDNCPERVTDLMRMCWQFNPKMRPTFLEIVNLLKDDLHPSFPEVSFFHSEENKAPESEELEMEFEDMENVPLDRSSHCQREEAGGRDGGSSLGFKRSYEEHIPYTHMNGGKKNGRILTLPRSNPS

Structure (SMILES): Cc1nn(C2CCN(C(=O)[C@@H](C)O)CC2)c(C)c1Nc1ncc(Cl)c(-c2cnn3ccccc23)n1 [AZD9362]
- IC50: 0.186 µM
